From patent US20210380556A1, “HETEROARYLAZOLE COMPOUND AND PEST CONTROL AGENT” (Nippon Soda Co., Ltd., priority 2018, published 2021)

Columns and labels:
Plutella xylostella = assay: Test Example 3: efficacy on Plutella xylostella (cabbage leaf dip); type: in vivo; conditions: foliar, 72 h, cabbage leaves dipped 30 seconds, second instar larvae, after 3 days, read-out: insecticidal rate
Experimental: (§1) 5 parts of the heteroaryl azole compound of the present invention, 93.6 parts of dimethylformamide, and 1.4 parts of polyoxyethylene alkyl aryl ether were mixed and dissolved to prepare emulsion (I) containing 5% of the active ingredient.
(§2) Insecticidal rate (%)=(The number of dead insects/The number of tested insects)×100
The emulsion (I) was diluted with water such that the concentration of the compound of the present invention was 125 ppm. Cabbage leaves were dipped in the dilution for 30 seconds. The resulting cabbage leaves were placed in a petri dish. Five second instar larvae of Plutella xylostella were released thereto. The petri dish was placed in a thermostat chamber having a temperature of 25° C. and a humidity of 60%. Life and death were determined after 3 days from the release of the insects, and the insecticidal rate was calculated. The test was conducted in duplicate.

Mythimna separata = assay: Test Example 1: efficacy on Mythimna separata (treated artificial feed); type: in vivo; conditions: 1 μl of emulsion (I) (5% active ingredient) in 0.8 g artificial feed; second instar larvae; 25° C.; fifth day
From the text: as §1
For a control, 98.5 parts of dimethylformamide and 1.5 parts of polyoxyethylene alkyl aryl ether were mixed and dissolved to prepare emulsion (II).
as §2
0.8 g of commercially available artificial feed (Insecta LFS, manufactured by Nosan Corp.) and 1 μl of the emulsion (I) were well mixed to obtain test feed.
A plastic test container (capacity: 1.4 ml) was packed with 0.2 g of the test feed per treatment plot. Then, two second instar larvae of Mythimna separata were inoculated to each treatment plot. A plastic lid was put on the test container so as to prevent escape of the second instar larvae of Mythimna separata. The container was placed in a thermostat chamber of 25° C. On the fifth day, the insecticidal rate and the food intake were examined. The test was conducted in duplicate.
The insecticidal rate and the food intake of a control plot were examined in the same way as in Test Example 1 except that the emulsion (I) was changed to the emulsion (II).

Musca domestica = assay: Test Example 9: efficacy on Musca domestica (treated sugar cube); type: in vivo; conditions: 100 ppm per g of a cube of sugar; female adults; 25° C.; after hours (number not given)
Experimental: as §2
The compound of the present invention was diluted with acetone and added dropwise at 100 ppm per g of a cube of sugar. The cube of sugar was placed in a plastic cup. Ten female adults of Musca domestica were released, and a lid was put on the plastic cup. The plastic cup was stored at 25° C. Life and death were determined after hours from the release of the insects, and the insecticidal rate was calculated. The test was conducted in duplicate.

SMILES	pest or weed control at 125 ppm (Plutella xylostella)	insecticidal rate or food intake as compared with the control plot (Mythimna separata)	also measured
CCS(=O)(=O)c1cnc(-n2cnc(N)n2)nc1-c1ncc(C(F)(F)C(F)(F)C(F)(F)C(F)(F)F)n1C			melting point: 219 to 221 °C
CCS(=O)(=O)c1cc(Br)cnc1-c1nnc(C(F)(F)C(F)(F)C(F)(F)C(F)(F)F)n1C			melting point: 74 to 76 °C
CCS(=O)(=O)c1cnc(-c2ncn(C)n2)nc1-c1ncc(C(F)(F)C(F)(F)C(F)(F)F)n1C [a-1]	≥ 80%	insecticidal rate of 100% for Mythimna separata or a food intake of 10% or less	
CCS(=O)(=O)c1cnc(-c2ncn(C)n2)nc1-c1ncc(C(F)(F)C(F)(F)C(F)(F)C(F)(F)F)n1C [a-2, 5-(ethylsulfonyl)-2-(1-methyl-1H-1,2,4-triazol-3-yl)-4-(1-methyl-5-(perfluorobutyl)-1H-imidazol-2-yl)pyrimidine]	≥ 80%	insecticidal rate of 100% for Mythimna separata or a food intake of 10% or less	
CCS(=O)(=O)c1cnc(-c2ncccn2)nc1-c1ncc(C(F)(F)C(F)(F)C(F)(F)C(F)(F)F)n1C [a-4]	≥ 80%		
CCS(=O)(=O)c1cnc(-n2ncnc2N)nc1-c1ncc(C(F)(F)C(F)(F)C(F)(F)C(F)(F)F)n1C [a-6]	≥ 80%	insecticidal rate of 100% for Mythimna separata or a food intake of 10% or less	
CCS(=O)(=O)c1cnc(-c2ncnn2C)nc1-c1ncc(C(F)(F)C(F)(F)C(F)(F)C(F)(F)F)n1C [a-10]	≥ 80%		
CCS(=O)(=O)c1cc(-c2ncccn2)cnc1-c1ncc(C(F)(F)C(F)(F)C(F)(F)C(F)(F)F)n1C [b-4]		insecticidal rate of 100% for Mythimna separata or a food intake of 10% or less	insecticidal rate (Musca domestica): ≥ 80%
CCS(=O)(=O)c1cc(-c2ncccn2)cnc1-c1ncc(C(F)(F)C(F)(F)C(F)(F)F)n1C [b-19, 2-(5-(ethylsulfonyl)-6-(1-methyl-5-(perfluoropropyl)-1H-imidazol-2-yl)pyridin-3-yl)pyrimidine]	≥ 80%		
CCS(=O)(=O)c1cc(-c2ccccn2)cnc1-c1ncc(C(F)(F)C(F)(F)C(F)(F)C(F)(F)F)n1C [b-59]		insecticidal rate of 100% for Mythimna separata or a food intake of 10% or less	
CCS(=O)(=O)c1cc(-c2cc(F)cc(F)c2)cnc1-c1ncc(C(F)(F)C(F)(F)C(F)(F)F)n1C [b-60]		insecticidal rate of 100% for Mythimna separata or a food intake of 10% or less	
CCS(=O)(=O)c1cc(-c2ncccc2F)cnc1-c1ncc(C(F)(F)C(F)(F)C(F)(F)C(F)(F)F)n1C [b-61]		insecticidal rate of 100% for Mythimna separata or a food intake of 10% or less	
CCS(=O)(=O)c1cc(-c2ncccc2Cl)cnc1-c1ncc(C(F)(F)C(F)(F)C(F)(F)F)n1C [b-62]		insecticidal rate of 100% for Mythimna separata or a food intake of 10% or less	
CCS(=O)(=O)c1cc(C2CC2)cnc1-c1ncc(C(F)C(F)(F)C(F)(F)C(F)(F)C(F)(F)F)n1C (stereo not shown) [b-63]		insecticidal rate of 100% for Mythimna separata or a food intake of 10% or less	
CCS(=O)(=O)c1cc(-c2ncccn2)cnc1-c1ncc(C(F)C(F)(F)C(F)(F)C(F)(F)C(F)(F)F)n1C (stereo not shown) [b-64]		insecticidal rate of 100% for Mythimna separata or a food intake of 10% or less	
CCS(=O)(=O)c1cc(-c2ccccn2)cnc1-c1ncc(C(F)C(F)(F)C(F)(F)C(F)(F)C(F)(F)F)n1C (stereo not shown) [b-66]		insecticidal rate of 100% for Mythimna separata or a food intake of 10% or less	
CCS(=O)(=O)c1cc(OCC(F)(F)C(F)(F)F)cnc1-c1ncc(C(F)C(F)(C(F)(F)F)C(F)(F)F)n1C (stereo not shown) [b-68]		insecticidal rate of 100% for Mythimna separata or a food intake of 10% or less	
CCS(=O)(=O)c1cc(OC(C)(C)C(F)(F)F)cnc1-c1ncc(C(F)C(F)(C(F)(F)F)C(F)(F)F)n1C (stereo not shown) [b-69]		insecticidal rate of 100% for Mythimna separata or a food intake of 10% or less	
CCS(=O)(=O)c1cc(/C=N/OCC(F)(F)C(F)(F)F)cnc1-c1ncc(C(F)C(F)(F)C(F)(F)F)n1C (stereo not shown) [c-1]	≥ 80%	insecticidal rate of 100% for Mythimna separata or a food intake of 10% or less	
CCS(=O)(=O)c1cc(C2CC2)cnc1-c1nnc(C(F)(F)C(F)(F)C(F)(F)C(F)(F)F)n1C [c-4]	≥ 80%		
CCS(=O)(=O)c1cc(-c2ncccn2)cnc1-c1nnc(C(F)(F)C(F)(F)C(F)(F)C(F)(F)F)n1C [c-5]	≥ 80%	insecticidal rate of 100% for Mythimna separata or a food intake of 10% or less	
CCS(=O)(=O)c1cc(C2CC2)c[n+]([O-])c1-c1ncc(C(F)C(F)(C(F)(F)F)C(F)(F)F)n1C (stereo not shown) [c-8]		insecticidal rate of 100% for Mythimna separata or a food intake of 10% or less	
